Measured values published in ChEMBL document CHEMBL1177848, “Synthesis of novel 6,6a,7,8-tetrahydro-5H-naphtho[1,2-e]pyrimido[4,5-b][1,4]diazepines under microwave irradiation as potential anti-tumor agents” (2010).
Active and inactive are the calls of the source. No cut-off for these calls is given here.

Legend:
[1] = test system: RPMI-8226; assay: Growth inhibition of human RPMI8226 cells after 48 hrs by sulforhodamine B assay; format: functional; settings: RPMI-8226, 48 h
[2] = test system: SR; assay: Growth inhibition of human SR cells after 48 hrs by sulforhodamine B assay; format: functional
[3] = test system: HOP-92; assay: Growth inhibition of human HOP92 cells after 48 hrs by sulforhodamine B assay; format: functional; settings: HOP-92, 48 h
[4] = test system: NCI-H23; assay: Growth inhibition of human NCI-H23 cells after 48 hrs by sulforhodamine B assay; format: functional; settings: NCI-H23, 48 h
[5] = test system: NCI-H460; assay: Growth inhibition of human NCI-H460 cells after 48 hrs by sulforhodamine B assay; format: functional; settings: NCI-H460, 48 h
[6] = test system: U-251; assay: Growth inhibition of human U251 cells after 48 hrs by sulforhodamine B assay; format: functional; settings: U-251, 48 h
[7] = test system: LOX IMVI; assay: Growth inhibition of human LOXIMVI cells after 48 hrs by sulforhodamine B assay; format: functional
[8] = test system: SK-MEL-5; assay: Growth inhibition of human SK-MEL-5 cells after 48 hrs by sulforhodamine B assay; format: functional; settings: SK-MEL-5, 48 h
[9] = test system: UACC-257; assay: Growth inhibition of human UACC257 cells after 48 hrs by sulforhodamine B assay; format: functional; settings: UACC-257, 48 h; for CC50: read-out: LC50 (the source's name)
[10] = test system: UACC-62; assay: Growth inhibition of human UACC62 cells after 48 hrs by sulforhodamine B assay; format: functional; settings: UACC-62, 48 h
[11] = test system: NCI/ADR-RES; assay: Growth inhibition of human NCI/ADR-RES cells after 48 hrs by sulforhodamine B assay; format: functional
[12] = test system: A498; assay: Growth inhibition of human A498 cells after 48 hrs by sulforhodamine B assay; format: functional; settings: A498, 48 h
[13] = test system: ACHN; assay: Growth inhibition of human ACHN cells after 48 hrs by sulforhodamine B assay; format: functional
[14] = test system: CAKI-1; assay: Growth inhibition of human Caki1 cells after 48 hrs by sulforhodamine B assay; format: functional; settings: CAKI-1, 48 h; for CC50: read-out: LC50 (the source's name)
[15] = test system: SN12C; assay: Growth inhibition of human SN12C cells after 48 hrs by sulforhodamine B assay; format: functional; settings: for CC50: read-out: LC50 (the source's name)
[16] = test system: TK-10; assay: Growth inhibition of human TK10 cells after 48 hrs by sulforhodamine B assay; format: functional; settings: TK-10, 48 h
[17] = test system: MCF7; assay: Growth inhibition of human MCF7 cells after 48 hrs by sulforhodamine B assay; format: functional; settings: MCF7, 48 h
[18] = test system: MDA-MB-231; assay: Growth inhibition of human MDA-MB-231 cells after 48 hrs by sulforhodamine B assay; format: functional; settings: MDA-MB-231, 48 h; for CC50: read-out: LC50 (the source's name)
[19] = test system: MDA-MB-468; assay: Growth inhibition of human MDA-MB-468 cells after 48 hrs by sulforhodamine B assay; format: functional; settings: MDA-MB-468, 48 h; for CC50: read-out: LC50 (the source's name)
[20] = test system: RPMI-8226; assay: Growth inhibition of human RPMI8226 cells at 1 uM after 48 hrs by sulforhodamine B assay; format: functional, cell-based
[21] = test system: SR; assay: Growth inhibition of human SR cells at 1 uM after 48 hrs by sulforhodamine B assay; format: functional, cell-based
[22] = test system: NCI-H226; assay: Growth inhibition of human NCI-H226 cells at 1 uM after 48 hrs by sulforhodamine B assay; format: functional, cell-based
[23] = test system: NCI-H23; assay: Growth inhibition of human NCI-H23 cells at 1 uM after 48 hrs by sulforhodamine B assay; format: functional, cell-based
[24] = test system: HOP-62; assay: Growth inhibition of human HOP62 cells at 1 uM after 48 hrs by sulforhodamine B assay; format: functional, cell-based
[25] = test system: A549; assay: Growth inhibition of human A549 cells at 1 uM after 48 hrs by sulforhodamine B assay; format: functional, cell-based
[26] = test system: COLO 205; assay: Growth inhibition of human COLO205 cells at 1 uM after 48 hrs by sulforhodamine B assay; format: functional, cell-based
[27] = test system: HCT-116; assay: Growth inhibition of human HCT116 cells at 1 uM after 48 hrs by sulforhodamine B assay; format: functional, cell-based
[28] = test system: HT-29; assay: Growth inhibition of human HT-29 cells at 1 uM after 48 hrs by sulforhodamine B assay; format: functional, cell-based
[29] = test system: SW-620; assay: Growth inhibition of human SW620 cells at 1 uM after 48 hrs by sulforhodamine B assay; format: functional, cell-based
[30] = test system: HCC 2998; assay: Growth inhibition of human HCC2998 cells at 1 uM after 48 hrs by sulforhodamine B assay; format: functional, cell-based
[31] = test system: SF-539; assay: Growth inhibition of human SF539 cells at 1 uM after 48 hrs by sulforhodamine B assay; format: functional, cell-based
[32] = test system: U-251; assay: Growth inhibition of human U251 cells at 1 uM after 48 hrs by sulforhodamine B assay; format: functional, cell-based
[33] = test system: SF-268; assay: Growth inhibition of human SF268 cells at 1 uM after 48 hrs by sulforhodamine B assay; format: functional, cell-based
[34] = test system: SNB-75; assay: Growth inhibition of human SNB75 cells at 1 uM after 48 hrs by sulforhodamine B assay; format: functional, cell-based
[35] = test system: SK-MEL-5; assay: Growth inhibition of human SK-MEL-5 cells at 1 uM after 48 hrs by sulforhodamine B assay; format: functional, cell-based
[36] = test system: UACC-257; assay: Growth inhibition of human UACC257 cells at 1 uM after 48 hrs by sulforhodamine B assay; format: functional, cell-based
[37] = test system: UACC-62; assay: Growth inhibition of human UACC62 cells at 1 uM after 48 hrs by sulforhodamine B assay; format: functional, cell-based
[38] = test system: SK-MEL-2; assay: Growth inhibition of human SK-MEL-2 cells at 1 uM after 48 hrs by sulforhodamine B assay; format: functional, cell-based
[39] = test system: IGROV-1; assay: Growth inhibition of human IGROV1 cells at 1 uM after 48 hrs by sulforhodamine B assay; format: functional, cell-based
[40] = test system: OVCAR-8; assay: Growth inhibition of human OVCAR8 cells at 1 uM after 48 hrs by sulforhodamine B assay; format: functional, cell-based
[41] = test system: A498; assay: Growth inhibition of human A498 cells at 1 uM after 48 hrs by sulforhodamine B assay; format: functional, cell-based
[42] = test system: ACHN; assay: Growth inhibition of human ACHN cells at 1 uM after 48 hrs by sulforhodamine B assay; format: functional, cell-based
[43] = test system: CAKI-1; assay: Growth inhibition of human Caki1 cells at 1 uM after 48 hrs by sulforhodamine B assay; format: functional, cell-based
[44] = test system: SN12C; assay: Growth inhibition of human SN12C cells at 1 uM after 48 hrs by sulforhodamine B assay; format: functional, cell-based
[45] = test system: 786-0; assay: Growth inhibition of human 786-0 cells at 1 uM after 48 hrs by sulforhodamine B assay; format: functional, cell-based
[46] = test system: PC-3; assay: Growth inhibition of human PC3 cells at 1 uM after 48 hrs by sulforhodamine B assay; format: functional, cell-based
[47] = test system: MCF7; assay: Growth inhibition of human MCF7 cells at 1 uM after 48 hrs by sulforhodamine B assay; format: functional, cell-based

Nc1nc(N)c2c(n1)NC(c1ccc(Cl)cc1)C1CCc3ccccc3C1=N2 (configuration not stated)
GI50 [1]: 2750 nM | LC50 [1]: 57.9 µM | GI50 [2]: 1.73 µM | LC50 [2]: 36.3 µM | GI50 [3]: 2260 nM | LC50 (50% lethal concentration) [3]: 31.9 µM | GI50 [4]: 4.88 µM | LC50 [4]: 44.7 µM | GI50 [5]: 3.77 µM | LC50 [5]: 39.1 µM | GI50 [6]: 3.81 µM | LC50 [6]: 43.9 µM | GI50 [7]: 3.53 µM | LC50 [7]: 44.5 µM | GI50 [8]: 500 nM | LC50 [8]: 6.56 µM | GI50 [9]: 7.07 µM | CC50 [9]: 44.9 µM | GI50 [10]: 3.66 µM | LC50 [10]: 43.3 µM | GI50 [11]: 5.53 µM | LC50 (concentration killing 50% of cells) [11]: 43.8 µM | GI50 [12]: 5.34 µM | LC50 [12]: 44.9 µM | GI50 [13]: 4.72 µM | LC50 (50% lethal concentration) [13]: 44.2 µM | GI50 [14]: 4.33 µM | CC50 [14]: 50 µM | GI50 [15]: 7.68 µM | CC50 [15]: 50.9 µM | GI50 [16]: 8.2 µM | LC50 (50% lethal concentration) [16]: 58 µM | GI50 [17]: 2410 nM | LC50 [17]: 33.7 µM | GI50 [18]: 9.73 µM | CC50 [18]: 47.9 µM | GI50 [19]: 1600 nM | CC50 [19]: 54.5 µM | growth inhibition (GI) [20]: inactive | growth inhibition (GI) [21]: inactive | growth inhibition (GI) [22]: inactive | growth inhibition (GI) [23]: inactive | growth inhibition (GI) [24]: inactive | growth inhibition (GI) [25]: inactive | growth inhibition (GI) [26]: inactive | growth inhibition (GI) [27]: inactive | growth inhibition (GI) [28]: inactive | growth inhibition (GI) [29]: inactive | growth inhibition (GI) [30]: inactive | growth inhibition (GI) [31]: inactive | growth inhibition (GI) [32]: inactive | growth inhibition (GI) [33]: inactive | growth inhibition (GI) [34]: inactive | growth inhibition (GI) [35]: inactive | growth inhibition (GI) [36]: inactive | growth inhibition (GI) [37]: inactive | growth inhibition (GI) [38]: inactive | growth inhibition (GI) [39]: inactive | growth inhibition (GI) [40]: inactive | growth inhibition (GI) [41]: inactive | growth inhibition (GI) [42]: inactive | growth inhibition (GI) [43]: inactive | growth inhibition (GI) [44]: inactive | growth inhibition (GI) [45]: inactive | growth inhibition (GI) [46]: inactive | growth inhibition (GI) [47]: inactive

Nc1nc(N)c2c(n1)NC(c1ccccc1)C1CCc3ccccc3C1=N2 (configuration not stated)
GI50 [1]: 3210 nM | LC50 [1]: > 100 µM | GI50 [2]: 4.52 µM | LC50 [2]: > 100 µM | GI50 [3]: 2550 nM | LC50 (50% lethal concentration) [3]: 40.6 µM | GI50 [4]: 4.56 µM | LC50 [4]: 57.4 µM | GI50 [5]: 3.81 µM | LC50 [5]: 44.2 µM | GI50 [6]: 4.65 µM | LC50 [6]: 44 µM | GI50 [7]: 3.79 µM | LC50 [7]: 40.6 µM | GI50 [8]: 638 nM | LC50 [8]: 6.35 µM | GI50 [9]: 3.72 µM | CC50 [9]: 42.6 µM | GI50 [10]: 3.11 µM | LC50 [10]: 45 µM | GI50 [11]: 3.13 µM | LC50 (concentration killing 50% of cells) [11]: > 100 µM | GI50 [12]: 2.29 µM | LC50 [12]: 30.2 µM | GI50 [13]: 4.38 µM | LC50 (50% lethal concentration) [13]: 41.9 µM | GI50 [14]: 3.97 µM | CC50 [14]: 48.5 µM | GI50 [15]: 7.33 µM | CC50 [15]: 50.8 µM | GI50 [16]: 3.01 µM | LC50 (50% lethal concentration) [16]: 43.6 µM | GI50 [17]: 3250 nM | LC50 [17]: 46.7 µM | GI50 [18]: 6.02 µM | CC50 [18]: 51.9 µM | GI50 [19]: 473 nM | CC50 [19]: 20.8 µM | growth inhibition (GI) [20]: inactive | growth inhibition (GI) [21]: inactive | growth inhibition (GI) [22]: inactive | growth inhibition (GI) [23]: inactive | growth inhibition (GI) [24]: inactive | growth inhibition (GI) [25]: inactive | growth inhibition (GI) [26]: inactive | growth inhibition (GI) [27]: inactive | growth inhibition (GI) [28]: inactive | growth inhibition (GI) [29]: inactive | growth inhibition (GI) [30]: inactive | growth inhibition (GI) [31]: inactive | growth inhibition (GI) [32]: inactive | growth inhibition (GI) [33]: inactive | growth inhibition (GI) [34]: inactive | growth inhibition (GI) [35]: inactive | growth inhibition (GI) [36]: inactive | growth inhibition (GI) [37]: inactive | growth inhibition (GI) [38]: inactive | growth inhibition (GI) [39]: inactive | growth inhibition (GI) [40]: inactive | growth inhibition (GI) [41]: inactive | growth inhibition (GI) [42]: inactive | growth inhibition (GI) [43]: inactive | growth inhibition (GI) [44]: inactive | growth inhibition (GI) [45]: inactive | growth inhibition (GI) [46]: inactive | growth inhibition (GI) [47]: inactive
